Source: patent EP0390112B1, “Selective adenosine receptor agents” (MERRELL PHARMACEUTICALS INC., priority 1989, dated 1990)

Columns and labels:
Adenosine A-1 receptor = target: T1, Adenosine A-1 receptor (Rattus norvegicus, UniProt P25099); experiment: Test for affinity for brain adenosine A-1 receptor binding sites ([3H]cyclohexyladenosine competition); conditions: [3H]cyclohexyladenosine 0.8 nM, rat brain membranes, 25°C, 2 hours
T1 construct: the membranes are isolated from whole animal brains; from tissue; host or cells: whole brain of male Sprague-Dawley rats
T1 sequence (P25099 1-326): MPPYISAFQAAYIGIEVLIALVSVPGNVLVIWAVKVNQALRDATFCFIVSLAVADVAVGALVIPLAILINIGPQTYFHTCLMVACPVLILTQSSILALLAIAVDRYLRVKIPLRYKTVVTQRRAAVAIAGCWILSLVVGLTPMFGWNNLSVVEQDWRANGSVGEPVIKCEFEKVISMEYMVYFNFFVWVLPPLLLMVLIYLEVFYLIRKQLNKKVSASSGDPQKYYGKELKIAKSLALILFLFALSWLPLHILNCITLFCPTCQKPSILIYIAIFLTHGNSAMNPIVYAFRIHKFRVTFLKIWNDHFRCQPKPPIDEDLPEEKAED
Description: Test For Affinity For Brain Adenosine A-1 Receptor Binding Sites
The test described below is used to determine the potency of test compounds to compete with the ligand [3H]cycloadenosine for the Adenosine A-1 receptor prepared from rat brain membranes. Male Sprague-Dawley rats are sacrificed by decapitation and the membranes are isolated from whole animal brains. (See R. Goodman, M. Cooper, M. Gavish, and S. Synder, Guanine Nucleotide and Cation Regulation of the Binding of [3H] Diethylphenylxanthine to Adenosine A-1 Receptors in Brain Membrane, Molecular Pharmacology, 21, 329-335, (1982), incorporated herein by reference.)
Membranes are homogenized (using polytron setting 7 for 10 seconds) in 25 volumes of ice-cold 50 mM Tris-HCl buffer, pH 7.7. The homogenate is centrifuged at 19,000 rpm for 10 minutes at 4°C. The pellet is washed by resuspending in 25 volumes of buffer with 2 IU of adenosine deaminase per ml and incubated 30 minutes at 37°C. The homogenate is centrifuged again. The final pellet is resuspended in 25 volumes of ice-cold buffer.
The incubation tubes, in triplicate, receive 100 µl of [3H]cyclohexyladenosine, 0.8 nM in the assay, 200 µl of test compounds at various concentrations over the range of 10^-10 M to 10^-6 M diluted with […] Tris-HCl buffer (pH 7.7), 0.2 ml of membrane suspension (8 mg wet weight) and in a final volume of 2 ml with Tris buffer. Incubations are carried out at 25°C for 2 hours and each one is terminated within 10 seconds by filtration through a GF/B glass fiber filter using a vacuum. The membranes on the filters are transferred to scintillation vials. The filters are counted by liquid scintillation spectometry in 8 ml of Omniflour containing 5% Protosol.
Specific binding of [3H]cycloadenosine is measured as the excess over blanks taken in the presence of 10^-5 M 2-chloroadenosine. Total membrane-bound radioactivity is about 5% of that added to the test tubes. Specific binding to membranes is about 90% of the total bound. Protein content of the membrane suspension is determined by the method of Lowry, et al. Id., 265.
Displacement of [3H]cyclohexyladenosine binding of 15% or more by a test compound is indicative of affinity for the adenosine binding site.

adenosine A-2 receptors = target: T2, adenosine A-2 receptors (Rattus norvegicus, UniProt P30543); experiment: Test for affinity for brain adenosine A-2 receptors ([3H]NECA competition); format: binding; conditions: rat brain striatum membranes, 25°C, 60 minutes, read-out: A-2 Receptor Ki
T2 construct: the adenosine A-2 receptors prepared from animal brain membranes; from tissue; host or cells: striatum of young male rats (C-D strain, Charles River)
Description: Test For Affinity For Brain Adenosine A-2 Receptors
The test described below was used to determine the potency of test compounds to compete with the ligand [3H]5′-N-ethyl-carboxamidoadenosine (NECA) for the adenosine A-2 receptors prepared from animal brain membranes. (See also R.R. Bruns, G.H. Lu, and T.A. Pugsley, Characterization of the A-2 Adenosine Receptor Labeled by [3H]NECA in Rat Striatal Membranes, Mol. Pharmacol., 29, 331-346, (1986), incorporated herein by reference.) Young male rats (C-D strain), obtained from Charles River, are killed by decapitation and the brain was removed. Membranes for ligand binding are isolated from rat brain striatum. The tissue is homogenized in 20 vol ice-cold 50 mM Tris-HCl buffer (pH 7.7) using a polytron (setting 6 for 20 seconds). The homogenate is centrifuged at 50,000 x g for 10 minutes at 4°C. The pellet is again homogenized in a polytron in 20 vol of buffer, and centrifuged as before. The pellet is finally resuspended in 40 vol of 50mM Tris-HCl (pH 7.7) per gram of original wet weight of tissue.
Incubation tubes, in triplicate, receive 100 µl of [3H]NECA (94 nM in the assay), 100 µl of 1 µM cyclohexyladenosine (CHA), 100 µl of 100 mM MgCl2, 100 µl of 1 IU/ml adenosine deaminase, 100 µl of test compounds at various concentrations over the range of 10^-10 M to 10^-4 M diluted with assay buffer (50 mM Tris-HCl, pH 7.7) and […] of membrane suspension (5 mg wet weight), in a final volume of 1 ml of 50 mM Tris-HCl, pH 7.7. Incubations are carried out at 25°C for 60 minutes. Each tube is filtered through GF/B glass fiber filters using a vacuum. The filters are rinsed two times with 5 ml of the ice-cold buffer. The membranes on the filters are transferred to scintillation vials to which 8 ml of Omnifluor with 5% Protosol is added. The filters are counted by liquid scintillation spectrometry.
Specific binding of [3H]NECA is measured as the excess over blanks run in the presence of 100 µM 2-chloroadenosine. Total membrane-bound radioactivity is about 2.5% of that added to the test tubes. […] Specific binding to membranes is about 50% of the total bound. Protein content of the membrane suspension is determined by the method of O.H. Lowry, N.J. Rosebrough, A.L. Farr and R.J. Randall, Protein Measurements With Folin Phenol Reagent, J. Biol. Chem., 193, 265-275 (1951), (incorporated herein by reference).
Displacement of [3H]NECA binding of 15% or more by a test compound is indicative of affinity for the adenosine A-2 site. The molar concentration of a compound which causes 50% inhibition of the binding of ligand is the IC50.

A-2 receptors = conditions: brain slice assay; cited from earlier work

T2 sequence (P30543 whole entry): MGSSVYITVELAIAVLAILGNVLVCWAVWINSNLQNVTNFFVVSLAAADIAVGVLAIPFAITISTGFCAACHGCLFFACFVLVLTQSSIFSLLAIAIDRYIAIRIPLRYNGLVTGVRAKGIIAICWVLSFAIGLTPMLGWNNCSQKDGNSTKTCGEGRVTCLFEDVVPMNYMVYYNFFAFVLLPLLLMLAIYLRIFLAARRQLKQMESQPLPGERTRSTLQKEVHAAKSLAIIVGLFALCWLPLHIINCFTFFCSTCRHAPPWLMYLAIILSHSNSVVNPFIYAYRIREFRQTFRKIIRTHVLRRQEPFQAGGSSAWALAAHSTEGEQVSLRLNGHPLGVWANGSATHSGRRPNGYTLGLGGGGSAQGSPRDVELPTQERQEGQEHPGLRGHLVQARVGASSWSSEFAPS

Row | Structure (SMILES) | Ki (Adenosine A-1 receptor) [nM] | Ki (adenosine A-2 receptors) [nM] | Ki (A-2 receptors) [nM]
1 | CCCn1c(=O)c2[nH]c(-c3ccc(OCC(=O)O)cc3)nc2n(CCC)c1=O [XCC, carboxylic acid congener of 8-phenyl-1,3-dipropyl-xanthine] |  |  | 34 ± 13
2 | CCCOc1nc(N[C@H](CO)Cc2ccccc2)c2ncn([C@@H]3O[C@H](CO)[C@@H](O)[C@H]3O)c2n1 [Compound 6] | 44 | 1900 | 
3 | CCCOc1nc(N[C@@H](CO)Cc2ccccc2)c2ncn([C@@H]3O[C@H](CO)[C@@H](O)[C@H]3O)c2n1 [Compound 5] | 3700 | 17200 | 
4 | CCCn1c(=O)c2[nH]c(-c3ccc(OCC(=O)NCCN)cc3)nc2n(CCC)c1=O [XAC, amino congener of 8-phenyl-1,3-dipropyl-xanthine] |  |  | 49 ± 17

Further lines, with some results ahead:

Row | Ki (Adenosine A-1 receptor) [nM] | Ki (adenosine A-2 receptors) [nM] | Structure (SMILES) | Ki (A-2 receptors) [nM]
5 | 2010 | 3630 | CCCOc1nc(N[C@H](C)Cc2ccccc2)c2cnn(-c3ccccc3)c2n1 [Compound 1, (R)-N-(1-methyl-2-phenylethyl)-1-phenyl-6-propoxy-1H-pyrazolo[3,4-d]pyrimidin-4-amine] | 
6 | 321 | 377 | CCCOc1nc(N[C@@H](CO)Cc2ccccc2)c2cnn(-c3ccccc3)c2n1 [Compound 4, (R)-β-[(1-phenyl-6-propoxy-1H-pyrazolo[3,4-d]pyrimidin-4-yl)amino]benzenepropanol] | 
7 | 1740 | 2900 | CCCOc1nc(N[C@H](CO)Cc2ccccc2)c2cnn(-c3ccccc3)c2n1 [Compound 3, (S)-β-[(1-phenyl-6-propoxy-1H-pyrazolo[3,4-d]pyrimidin-4-yl)amino]benzenepropanol] | 
8 | 11300 | > 6990 | CCCOc1nc(N[C@@H](C)Cc2ccccc2)c2cnn(-c3ccccc3)c2n1 [Compound 2, (S)-N-(1-methyl-2-phenylethyl)-1-phenyl-6-propoxy-1H-pyrazolo[3,4-d]pyrimidin-4-amine] | 
